Experimental data: PubChem BioAssay (NCI)
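Values below derive from 48-hour exposures of cells grown in 96-well plates, with endpoints linearly interpolated between the two concentrations bracketing the appropriate inhibition level. TGI: total growth inhibition.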

What was measured:
Assay in all cases: NCI tumour cell line growth inhibition, 48 h
HOP-62 NSCLC = tested on: HOP-62 NSCLC
MCF7 breast = tested on: MCF7 breast
CCRF-CEM leukemia = tested on: CCRF-CEM leukemia
OVCAR-3 ovarian = tested on: OVCAR-3 ovarian
RXF 393 renal = tested on: RXF 393 renal
K-562 leukemia = tested on: K-562 leukemia
MOLT-4 leukemia = tested on: MOLT-4 leukemia
OVCAR-8 ovarian = tested on: OVCAR-8 ovarian
PC-3 prostate = tested on: PC-3 prostate
SNB-75 CNS = tested on: SNB-75 CNS
OVCAR-5 ovarian = tested on: OVCAR-5 ovarian
EKVX NSCLC = tested on: EKVX NSCLC
U251 CNS = tested on: U251 CNS
UACC-257 melanoma = tested on: UACC-257 melanoma
BT-549 breast = tested on: BT-549 breast
HS 578T breast = tested on: HS 578T breast
HOP-92 NSCLC = tested on: HOP-92 NSCLC
UO-31 renal = tested on: UO-31 renal
HCT-116 colon = tested on: HCT-116 colon
UACC-62 melanoma = tested on: UACC-62 melanoma
MDA-N = tested on: MDA-N
NCI-H23 lung = tested on: NCI-H23 lung
NCI-H522 lung = tested on: NCI-H522 lung
NCI-H460 lung = tested on: NCI-H460 lung
T-47D breast = tested on: T-47D breast
NCI-H226 lung = tested on: NCI-H226 lung
TK-10 renal = tested on: TK-10 renal
COLO 205 colon = tested on: COLO 205 colon
HCT-15 colon = tested on: HCT-15 colon
786-0 renal = tested on: 786-0 renal
RPMI-8226 leukemia = tested on: RPMI-8226 leukemia
SR leukemia = tested on: SR leukemia
ACHN renal = tested on: ACHN renal
OVCAR-4 ovarian = tested on: OVCAR-4 ovarian
SK-MEL-5 melanoma = tested on: SK-MEL-5 melanoma
A498 renal = tested on: A498 renal
NCI/ADR-RES ovarian = tested on: NCI/ADR-RES ovarian
SF-539 CNS = tested on: SF-539 CNS
SN12C renal = tested on: SN12C renal
SF-295 CNS = tested on: SF-295 CNS
MALME-3M melanoma = tested on: MALME-3M melanoma
SNB-19 CNS = tested on: SNB-19 CNS
SK-MEL-2 melanoma = tested on: SK-MEL-2 melanoma
SW-620 colon = tested on: SW-620 colon
IGROV1 ovarian = tested on: IGROV1 ovarian
A549 NSCLC = tested on: A549 NSCLC
M14 melanoma = tested on: M14 melanoma
HT29 colon = tested on: HT29 colon
SF-268 CNS = tested on: SF-268 CNS
SK-OV-3 ovarian = tested on: SK-OV-3 ovarian
MDA-MB-435 = tested on: MDA-MB-435
HCC-2998 colon = tested on: HCC-2998 colon
SK-MEL-28 melanoma = tested on: SK-MEL-28 melanoma
KM12 colon = tested on: KM12 colon
MDA-MB-231 breast = tested on: MDA-MB-231 breast
LOX IMVI melanoma = tested on: LOX IMVI melanoma
CAKI-1 renal = tested on: CAKI-1 renal
DU-145 prostate = tested on: DU-145 prostate
HL-60(TB) leukemia = tested on: HL-60(TB) leukemia

## COC(=O)/C=C\n1c(C)cc(=O)[nH]c1=O
HOP-62 NSCLC
  TGI: > 100 µM
MCF7 breast
  TGI: 89 µM
CCRF-CEM leukemia
  TGI: > 100 µM
OVCAR-3 ovarian
  TGI: > 100 µM
RXF 393 renal
  TGI: > 100 µM
K-562 leukemia
  TGI: > 100 µM
MOLT-4 leukemia
  TGI: > 100 µM
OVCAR-8 ovarian
  TGI: > 100 µM
PC-3 prostate
  TGI: > 100 µM
SNB-75 CNS
  TGI: > 100 µM
OVCAR-5 ovarian
  TGI: > 100 µM
EKVX NSCLC
  TGI: > 100 µM
U251 CNS
  TGI: > 100 µM
UACC-257 melanoma
  TGI: > 100 µM
BT-549 breast
  TGI: > 100 µM
HS 578T breast
  TGI: > 100 µM
HOP-92 NSCLC
  TGI: > 100 µM
UO-31 renal
  TGI: > 100 µM
HCT-116 colon
  TGI: > 100 µM
UACC-62 melanoma
  TGI: > 100 µM
MDA-N
  TGI: > 100 µM
NCI-H23 lung
  TGI: > 100 µM
NCI-H522 lung
  TGI: > 100 µM
NCI-H460 lung
  TGI: > 100 µM
T-47D breast
  TGI: > 100 µM
NCI-H226 lung
  TGI: > 100 µM
TK-10 renal
  TGI: > 100 µM
COLO 205 colon
  TGI: > 100 µM
HCT-15 colon
  TGI: > 100 µM
786-0 renal
  TGI: > 100 µM
RPMI-8226 leukemia
  TGI: > 100 µM
SR leukemia
  TGI: > 100 µM
ACHN renal
  TGI: > 100 µM
OVCAR-4 ovarian
  TGI: > 100 µM
SK-MEL-5 melanoma
  TGI: > 100 µM
A498 renal
  TGI: > 100 µM
NCI/ADR-RES ovarian
  TGI: > 100 µM
SF-539 CNS
  TGI: > 100 µM
SN12C renal
  TGI: > 100 µM
SF-295 CNS
  TGI: > 100 µM
MALME-3M melanoma
  TGI: > 100 µM
SNB-19 CNS
  TGI: > 100 µM
SK-MEL-2 melanoma
  TGI: > 100 µM
SW-620 colon
  TGI: > 100 µM
IGROV1 ovarian
  TGI: > 100 µM
A549 NSCLC
  TGI: > 100 µM
M14 melanoma
  TGI: > 100 µM
HT29 colon
  TGI: > 100 µM
SF-268 CNS
  TGI: > 100 µM
SK-OV-3 ovarian
  TGI: > 100 µM
MDA-MB-435
  TGI: > 100 µM
HCC-2998 colon
  TGI: > 100 µM
SK-MEL-28 melanoma
  TGI: > 100 µM
KM12 colon
  TGI: > 100 µM

## CC(C)/C(Cl)=N\OC(=O)Nc1ccccc1F
HOP-62 NSCLC
  TGI: > 55.6 µM
MCF7 breast
  TGI: 16 µM
CCRF-CEM leukemia
  TGI: 3.44 µM
OVCAR-3 ovarian
  TGI: 34.4 µM
RXF 393 renal
  TGI: 9.97 µM
K-562 leukemia
  TGI: 6.52 µM
MDA-MB-231 breast
  TGI: 22.6 µM
MOLT-4 leukemia
  TGI: 12.4 µM
OVCAR-8 ovarian
  TGI: 31.4 µM
PC-3 prostate
  TGI: 30.9 µM
SNB-75 CNS
  TGI: 23.1 µM
OVCAR-5 ovarian
  TGI: 33.3 µM
EKVX NSCLC
  TGI: 30.7 µM
U251 CNS
  TGI: 31.1 µM
UACC-257 melanoma
  TGI: 33.2 µM
BT-549 breast
  TGI: 27.6 µM
HS 578T breast
  TGI: > 69.3 µM
HOP-92 NSCLC
  TGI: 4.06 µM
UO-31 renal
  TGI: 29.6 µM
HCT-116 colon
  TGI: 23.9 µM
LOX IMVI melanoma
  TGI: 6.92 µM
UACC-62 melanoma
  TGI: 36.6 µM
MDA-N
  TGI: 30.6 µM
NCI-H23 lung
  TGI: 33.7 µM
NCI-H460 lung
  TGI: 36.2 µM
T-47D breast
  TGI: 49.5 µM
NCI-H226 lung
  TGI: 28.8 µM
TK-10 renal
  TGI: 27.6 µM
CAKI-1 renal
  TGI: 38.3 µM
COLO 205 colon
  TGI: 4.2 µM
HCT-15 colon
  TGI: 31.3 µM
DU-145 prostate
  TGI: 30 µM
786-0 renal
  TGI: 29.9 µM
HL-60(TB) leukemia
  TGI: 4.13 µM
RPMI-8226 leukemia
  TGI: 92.6 µM
SR leukemia
  TGI: 6.54 µM
ACHN renal
  TGI: 24.9 µM
OVCAR-4 ovarian
  TGI: 31.7 µM
SK-MEL-5 melanoma
  TGI: 27.9 µM
A498 renal
  TGI: 28.3 µM
NCI/ADR-RES ovarian
  TGI: 30.7 µM
SF-539 CNS
  TGI: 32.1 µM
SN12C renal
  TGI: 26.8 µM
SF-295 CNS
  TGI: 30.3 µM
MALME-3M melanoma
  TGI: 8.72 µM
SNB-19 CNS
  TGI: > 57.3 µM
SK-MEL-2 melanoma
  TGI: 33.2 µM
SW-620 colon
  TGI: 3.59 µM
IGROV1 ovarian
  TGI: 33.4 µM
A549 NSCLC
  TGI: 35.6 µM
M14 melanoma
  TGI: 13.3 µM
HT29 colon
  TGI: 54.3 µM
SF-268 CNS
  TGI: 41.9 µM
SK-OV-3 ovarian
  TGI: 33.4 µM
HCC-2998 colon
  TGI: 19.6 µM
SK-MEL-28 melanoma
  TGI: 30.4 µM
KM12 colon
  TGI: 40.3 µM
